The record followed here is ChEMBL document CHEMBL4382234, “Fluoroquinolone-isatin hybrids and their biological activities” (Eur J Med Chem, 2019).

What all share (type): functional
The test system of experiment [1] is Mycobacterium tuberculosis. Briefly: Antimycobacterial activity against Mycobacterium tuberculosis H37Rv ATCC 27294 by rapid direct susceptibility test.
For experiment [2], the system named is Mycolicibacterium smegmatis. The experiment is described as follows: Antimycobacterial activity against Mycobacterium smegmatis CMCC 93202 after 72 hrs by double dilution method. The settings on record: CMCC 93202, 72 h.
Experiment [3] has as its system Mycobacterium tuberculosis. Briefly: Antimycobacterial activity against Mycobacterium tuberculosis H37Rv after 3 to 7 days by rapid direct susceptibility test.

In brackets after ≈: the same amount, converted by molar mass.

As a reminder, the MIC is the lowest concentration found to suppress growth. `CCO/N=C1\C(=O)N(CN2CCC[C@H]3CN(c4c(F)cc5c(=O)c(C(=O)O)cn(C6CC6)c5c4OC)C[C@H]32)c2ccc(F)cc21`: the MIC in experiment [1] and in experiment [2] was 0.39 to 16 µg/mL (≈ 0.627 to 25.7 µM) each time. Regarding `COc1c(N2C[C@@H]3CCCN(Cc4cn(CCN5C(=O)C(=O)c6cc(Br)ccc65)nn4)[C@@H]3C2)c(F)cc2c(=O)c(C(=O)O)cn(C3CC3)c12`, in experiment [3], the MIC fell in the range of 0.1 to 0.78 µg/mL (≈ 0.136 to 1.06 µM). On to `COc1c(N2C[C@@H]3CCCN(Cc4cn(CCN5C(=O)/C(=N/O)c6cc(Br)ccc65)nn4)[C@@H]3C2)c(F)cc2c(=O)c(C(=O)O)cn(C3CC3)c12`, for which the MIC in experiment [3] lay in the range of 0.1 to 0.78 µg/mL (≈ 0.133 to 1.04 µM). As to `NC(=S)N/N=C1/C(=O)N(CCCN2CCN(c3cc4c(cc3F)c(=O)c(C(=O)O)cn4C3CC3)CC2)c2ccccc21`, the MIC in experiment [3] lay in the range of 0.1 to 64 µg/mL (≈ 0.169 to 108 µM). `O=C(O)c1cn(C2CC2)c2cc(N3CCN(CCCN4C(=O)/C(=N/O)c5ccccc54)CC3)c(F)cc2c1=O` registered an MIC in experiment [3] of 0.1 to 64 µg/mL (≈ 0.187 to 120 µM). In the case of `COc1c(N2CCNC(C)C2)c(F)cc2c(=O)c(C(=O)O)cn(C3CC3)c12` (centres undefined) [GATIFLOXACIN], inhibition of growth in experiment [3] (MIC) required 0.5 µg/mL (≈ 1.33 µM).

As for `COc1c(N2C[C@@H]3CCCN(CCN4C(=O)/C(=N\NC(N)=S)c5ccccc54)[C@@H]3C2)c(F)cc2c(=O)c(C(=O)O)cn(C3CC3)c12`, the MIC in experiment [1] and in experiment [2] was 0.39 to 16 µg/mL (≈ 0.602 to 24.7 µM) in each case. For the compound `COc1c(N2C[C@@H]3CCCN(CN4C(=O)/C(=N\NC(N)=O)c5cc(F)ccc54)[C@@H]3C2)c(F)cc2c(=O)c(C(=O)O)cn(C3CC3)c12`, the MIC in experiment [1] and in experiment [2] was 0.39 to 16 µg/mL (≈ 0.614 to 25.2 µM) in each case.

Turning to `COc1c(N2C[C@@H]3CCCN(CN4C(=O)/C(=N\NC(N)=S)c5cc(F)ccc54)[C@@H]3C2)c(F)cc2c(=O)c(C(=O)O)cn(C3CC3)c12`, the MIC in experiment [1] and in experiment [2] was 0.39 to 16 µg/mL (≈ 0.598 to 24.6 µM) throughout. Turning to `CO/N=C1\C(=O)N(CCN2CCC[C@H]3CN(c4c(F)cc5c(=O)c(C(=O)O)cn(C6CC6)c5c4OC)C[C@H]32)c2cc(F)ccc21`, the MIC in experiment [1] and in experiment [2] was 0.39 to 16 µg/mL (≈ 0.627 to 25.7 µM) in each case.

For the compound `Cc1ccc2c(c1)/C(=N\NC(N)=O)C(=O)N2CCCN1CCN(c2cc3c(cc2F)c(=O)c(C(=O)O)cn3C2CC2)CC1`, the MIC in experiment [3] was in the range of 0.1 to 64 µg/mL (≈ 0.17 to 109 µM).

Turning to `COc1c(N2C[C@@H]3CCCN(CN4C(=O)C(=O)c5ccccc54)[C@@H]3C2)c(F)cc2c(=O)c(C(=O)O)cn(C3CC3)c12`, the MIC in experiment [1] and in experiment [2] was 0.39 to 16 µg/mL (≈ 0.696 to 28.5 µM) throughout. With `COc1c(N2C[C@@H]3CCCN(CCN4C(=O)/C(=N\NC(N)=O)c5ccccc54)[C@@H]3C2)c(F)cc2c(=O)c(C(=O)O)cn(C3CC3)c12`, the MIC in experiment [1] and in experiment [2] was 0.39 to 16 µg/mL (≈ 0.617 to 25.3 µM) in each case. In experiment [3], `CCO/N=C1/C(=O)N(CCn2cc(CN3CCC[C@H]4CN(c5c(F)cc6c(=O)c(C(=O)O)cn(C7CC7)c6c5OC)C[C@H]43)nn2)c2ccc(Br)cc21` registered an MIC of 0.1 to 0.78 µg/mL (≈ 0.129 to 1 µM). With `CCO/N=C1\C(=O)N(CCN2CCC[C@H]3CN(c4c(F)cc5c(=O)c(C(=O)O)cn(C6CC6)c5c4OC)C[C@H]32)c2ccc(F)cc21`, the MIC in experiment [1] and in experiment [2] was 0.39 to 16 µg/mL (≈ 0.614 to 25.2 µM) each time. As to `COc1c(N2C[C@@H]3CCCN(CN4C(=O)/C(=N\O)c5cc(F)ccc54)[C@@H]3C2)c(F)cc2c(=O)c(C(=O)O)cn(C3CC3)c12`, the MIC in experiment [1] and in experiment [2] was 0.39 to 16 µg/mL (≈ 0.657 to 27 µM) throughout.

With `COc1c(N2C[C@@H]3CCCN(CCN4C(=O)/C(=N\NC(N)=O)c5cc(F)ccc54)[C@@H]3C2)c(F)cc2c(=O)c(C(=O)O)cn(C3CC3)c12`, the MIC in experiment [1] and in experiment [2] was 0.39 to 16 µg/mL (≈ 0.6 to 24.6 µM) throughout. Turning to `CO/N=C1\C(=O)N(CN2CCC[C@H]3CN(c4c(F)cc5c(=O)c(C(=O)O)cn(C6CC6)c5c4OC)C[C@H]32)c2ccccc21`, the MIC in experiment [1] and in experiment [2] was 0.39 to 16 µg/mL (≈ 0.661 to 27.1 µM) each time. In the case of `COc1c(N2C[C@@H]3CCCN(Cc4cn(CCN5C(=O)/C(=N/NC(N)=O)c6cc(Br)ccc65)nn4)[C@@H]3C2)c(F)cc2c(=O)c(C(=O)O)cn(C3CC3)c12`, in experiment [3], the MIC is 0.1 to 0.78 µg/mL (≈ 0.126 to 0.985 µM).

In turn, `Cc1ccc2c(c1)/C(=N\NC(N)=S)C(=O)N2CCCN1CCN(c2cc3c(cc2F)c(=O)c(C(=O)O)cn3C2CC2)CC1` came in with an MIC in experiment [3] of 0.1 to 64 µg/mL (≈ 0.165 to 106 µM).

In the case of `CCO/N=C1\C(=O)N(CCN2CCC[C@H]3CN(c4c(F)cc5c(=O)c(C(=O)O)cn(C6CC6)c5c4OC)C[C@H]32)c2ccccc21`, the MIC in experiment [1] and in experiment [2] was 0.39 to 16 µg/mL (≈ 0.631 to 25.9 µM) throughout. `COc1c(N2C[C@@H]3CCCN(CCN4C(=O)/C(=N\O)c5cc(F)ccc54)[C@@H]3C2)c(F)cc2c(=O)c(C(=O)O)cn(C3CC3)c12`: the MIC in experiment [1] and in experiment [2] was 0.39 to 16 µg/mL (≈ 0.642 to 26.3 µM) in each case.

Take `COc1c(N2C[C@@H]3CCCN(CN4C(=O)C(=O)c5cc(F)ccc54)[C@@H]3C2)c(F)cc2c(=O)c(C(=O)O)cn(C3CC3)c12`: the MIC in experiment [1] and in experiment [2] was 0.39 to 16 µg/mL (≈ 0.674 to 27.7 µM) in each case.

On to `COc1c(N2C[C@@H]3CCCN(CN4C(=O)/C(=N\O)c5ccccc54)[C@@H]3C2)c(F)cc2c(=O)c(C(=O)O)cn(C3CC3)c12`, for which the MIC in experiment [1] and in experiment [2] was 0.39 to 16 µg/mL (≈ 0.678 to 27.8 µM) each time. Turning to `CO/N=C1\C(=O)N(CN2CCC[C@H]3CN(c4c(F)cc5c(=O)c(C(=O)O)cn(C6CC6)c5c4OC)C[C@H]32)c2ccc(F)cc21`, the MIC in experiment [1] and in experiment [2] was 0.39 to 16 µg/mL (≈ 0.642 to 26.3 µM) each time. With `Cc1ccc2c(c1)/C(=N\O)C(=O)N2CCCN1CCN(c2cc3c(cc2F)c(=O)c(C(=O)O)cn3C2CC2)CC1`, the MIC in experiment [3] is 0.1 to 64 µg/mL (≈ 0.183 to 117 µM). As for `CCO/N=C1\C(=O)N(CN2CCC[C@H]3CN(c4c(F)cc5c(=O)c(C(=O)O)cn(C6CC6)c5c4OC)C[C@H]32)c2ccccc21`, the MIC in experiment [1] and in experiment [2] was 0.39 to 16 µg/mL (≈ 0.646 to 26.5 µM) in each case. For `COc1c(N2C[C@@H]3CCCN(CN4C(=O)/C(=N\NC(N)=S)c5ccccc54)[C@@H]3C2)c(F)cc2c(=O)c(C(=O)O)cn(C3CC3)c12`, the MIC in experiment [1] and in experiment [2] was 0.39 to 16 µg/mL (≈ 0.615 to 25.2 µM) throughout. In experiment [3], `COc1c(N2C[C@@H]3CCCN(Cc4cn(CCN5C(=O)/C(=N/O)c6ccccc65)nn4)[C@@H]3C2)c(F)cc2c(=O)c(C(=O)O)cn(C3CC3)c12` returned an MIC of 0.1 to 0.78 µg/mL (≈ 0.149 to 1.16 µM).

`CO/N=C1\C(=O)N(CCN2CCC[C@H]3CN(c4c(F)cc5c(=O)c(C(=O)O)cn(C6CC6)c5c4OC)C[C@H]32)c2ccccc21`: the MIC in experiment [1] and in experiment [2] was 0.39 to 16 µg/mL (≈ 0.646 to 26.5 µM) each time. For the compound `COc1c(N2C[C@@H]3CCCN(CN4C(=O)/C(=N\NC(N)=O)c5ccccc54)[C@@H]3C2)c(F)cc2c(=O)c(C(=O)O)cn(C3CC3)c12`, the MIC in experiment [1] and in experiment [2] was 0.39 to 16 µg/mL (≈ 0.631 to 25.9 µM) each time. Consider `COc1c(N2C[C@@H]3CCCN(CCN4C(=O)/C(=N\O)c5ccccc54)[C@@H]3C2)c(F)cc2c(=O)c(C(=O)O)cn(C3CC3)c12`, for which the MIC in experiment [1] and in experiment [2] was 0.39 to 16 µg/mL (≈ 0.661 to 27.1 µM) throughout. On to `COc1c(N2C[C@@H]3CCCN(CCN4C(=O)C(=O)c5ccccc54)[C@@H]3C2)c(F)cc2c(=O)c(C(=O)O)cn(C3CC3)c12`, for which the MIC in experiment [1] and in experiment [2] was 0.39 to 16 µg/mL (≈ 0.679 to 27.8 µM) each time.

`COc1c(N2C[C@@H]3CCCN(CCN4C(=O)C(=O)c5cc(F)ccc54)[C@@H]3C2)c(F)cc2c(=O)c(C(=O)O)cn(C3CC3)c12`: the MIC in experiment [1] and in experiment [2] was 0.39 to 16 µg/mL (≈ 0.658 to 27 µM) each time. Regarding `COc1c(N2C[C@@H]3CCCN(CCN4C(=O)/C(=N\NC(N)=S)c5cc(F)ccc54)[C@@H]3C2)c(F)cc2c(=O)c(C(=O)O)cn(C3CC3)c12`, the MIC in experiment [1] and in experiment [2] was 0.39 to 16 µg/mL (≈ 0.586 to 24 µM) throughout.
